The NIST ThermoML archive (doi:10.1021/je300252d)

Assay: mn = molality of the nth substance listed, in mol/kg
Conditions: 100 kPa, Liquid, Direct current cell with electrodes

CCCC[N+](CCCC)(CCCC)CCCC.[Br-] [tetrabutylammonium bromide] + CN(C)C=O
Conditions | molar conductivity [S·m2/mol]
283.15 K, m1 = 9.197e-05 | 0.006236
283.15 K, m1 = 0.0002922 | 0.006141
283.15 K, m1 = 0.0004908 | 0.006078
283.15 K, m1 = 0.0006894 | 0.0060258
283.15 K, m1 = 0.001222 | 0.0059158
283.15 K, m1 = 0.00199 | 0.0057906
283.15 K, m1 = 0.002938 | 0.0056698
283.15 K, m1 = 0.003964 | 0.0055611
283.15 K, m1 = 0.005897 | 0.005399
283.15 K, m1 = 0.007916 | 0.0052571
283.15 K, m1 = 0.009885 | 0.0051385
283.15 K, m1 = 0.01187 | 0.0050378
288.15 K, m1 = 0.0002384 | 0.006641
288.15 K, m1 = 0.0003637 | 0.006588
288.15 K, m1 = 0.0005543 | 0.0065255
288.15 K, m1 = 0.0007699 | 0.0064657
288.15 K, m1 = 0.001232 | 0.0063637
288.15 K, m1 = 0.00201 | 0.0062266
288.15 K, m1 = 0.002974 | 0.0060937
288.15 K, m1 = 0.003946 | 0.005981
288.15 K, m1 = 0.005906 | 0.0058005
288.15 K, m1 = 0.007894 | 0.0056496
288.15 K, m1 = 0.009876 | 0.0055214
288.15 K, m1 = 0.01183 | 0.0054109
293.15 K, m1 = 0.000124 | 0.007196
293.15 K, m1 = 0.000358 | 0.007067
293.15 K, m1 = 0.0005617 | 0.006993
293.15 K, m1 = 0.0007496 | 0.0069356
293.15 K, m1 = 0.001203 | 0.006825
293.15 K, m1 = 0.001974 | 0.0066764
293.15 K, m1 = 0.002962 | 0.006528
293.15 K, m1 = 0.003941 | 0.0064046
293.15 K, m1 = 0.005913 | 0.0062071
293.15 K, m1 = 0.007899 | 0.0060446
293.15 K, m1 = 0.009903 | 0.0059059
293.15 K, m1 = 0.01185 | 0.0057855
298.15 K, m1 = 8.12e-05 | 0.00773
298.15 K, m1 = 0.0003247 | 0.007565
298.15 K, m1 = 0.0005335 | 0.007478
298.15 K, m1 = 0.000754 | 0.0074043
298.15 K, m1 = 0.001188 | 0.0072894
298.15 K, m1 = 0.001985 | 0.0071236
298.15 K, m1 = 0.002972 | 0.0069641
298.15 K, m1 = 0.003989 | 0.0068266
298.15 K, m1 = 0.005892 | 0.0066212
298.15 K, m1 = 0.007909 | 0.0064436
298.15 K, m1 = 0.009849 | 0.0062996
298.15 K, m1 = 0.0119 | 0.0061631
303.15 K, m1 = 0.0001279 | 0.008182
303.15 K, m1 = 0.0003737 | 0.008028
303.15 K, m1 = 0.0004937 | 0.007975
303.15 K, m1 = 0.0007203 | 0.0078909
303.15 K, m1 = 0.00121 | 0.0077502
303.15 K, m1 = 0.002013 | 0.0075724
303.15 K, m1 = 0.002974 | 0.0074063
303.15 K, m1 = 0.003957 | 0.0072634
303.15 K, m1 = 0.005917 | 0.0070358
303.15 K, m1 = 0.00787 | 0.0068512
303.15 K, m1 = 0.009823 | 0.0066956
303.15 K, m1 = 0.01184 | 0.0065521
308.15 K, m1 = 0.0001375 | 0.008672
308.15 K, m1 = 0.0003374 | 0.008537
308.15 K, m1 = 0.0005902 | 0.008422
308.15 K, m1 = 0.0007253 | 0.0083707
308.15 K, m1 = 0.001221 | 0.0082189
308.15 K, m1 = 0.002004 | 0.0080331
308.15 K, m1 = 0.002993 | 0.0078504
308.15 K, m1 = 0.003956 | 0.0077012
308.15 K, m1 = 0.005922 | 0.0074573
308.15 K, m1 = 0.007903 | 0.0072572
308.15 K, m1 = 0.009896 | 0.007088
308.15 K, m1 = 0.01189 | 0.0069381
313.15 K, m1 = 6.835e-05 | 0.009246
313.15 K, m1 = 0.0003232 | 0.009042
313.15 K, m1 = 0.0005979 | 0.008909
313.15 K, m1 = 0.0007057 | 0.0088651
313.15 K, m1 = 0.001228 | 0.0086936
313.15 K, m1 = 0.002045 | 0.0084879
313.15 K, m1 = 0.002992 | 0.0083023
313.15 K, m1 = 0.003971 | 0.0081415
313.15 K, m1 = 0.00585 | 0.0078927
313.15 K, m1 = 0.00787 | 0.0076738
313.15 K, m1 = 0.009873 | 0.0074917
313.15 K, m1 = 0.01189 | 0.007332
318.15 K, m1 = 9.782e-05 | 0.009714
318.15 K, m1 = 0.0003254 | 0.009541
318.15 K, m1 = 0.0005324 | 0.009434
318.15 K, m1 = 0.0007651 | 0.0093342
318.15 K, m1 = 0.001206 | 0.0091821
318.15 K, m1 = 0.001977 | 0.0089725
318.15 K, m1 = 0.002989 | 0.0087596
318.15 K, m1 = 0.003967 | 0.0085894
318.15 K, m1 = 0.005938 | 0.0083142
318.15 K, m1 = 0.007894 | 0.0080896
318.15 K, m1 = 0.009905 | 0.0078947
318.15 K, m1 = 0.01189 | 0.0077299
